The target in the test is T1, Nanoluciferase-BRD9 fusion protein (3×FLAG-NLuc-BRD9) in SYO-1 cells (Homo sapiens, UniProt Q9H8M2).
T1 construct: expressed in transfected cells; host or cells: SYO-1
T1 sequence (Q9H8M2 1-597): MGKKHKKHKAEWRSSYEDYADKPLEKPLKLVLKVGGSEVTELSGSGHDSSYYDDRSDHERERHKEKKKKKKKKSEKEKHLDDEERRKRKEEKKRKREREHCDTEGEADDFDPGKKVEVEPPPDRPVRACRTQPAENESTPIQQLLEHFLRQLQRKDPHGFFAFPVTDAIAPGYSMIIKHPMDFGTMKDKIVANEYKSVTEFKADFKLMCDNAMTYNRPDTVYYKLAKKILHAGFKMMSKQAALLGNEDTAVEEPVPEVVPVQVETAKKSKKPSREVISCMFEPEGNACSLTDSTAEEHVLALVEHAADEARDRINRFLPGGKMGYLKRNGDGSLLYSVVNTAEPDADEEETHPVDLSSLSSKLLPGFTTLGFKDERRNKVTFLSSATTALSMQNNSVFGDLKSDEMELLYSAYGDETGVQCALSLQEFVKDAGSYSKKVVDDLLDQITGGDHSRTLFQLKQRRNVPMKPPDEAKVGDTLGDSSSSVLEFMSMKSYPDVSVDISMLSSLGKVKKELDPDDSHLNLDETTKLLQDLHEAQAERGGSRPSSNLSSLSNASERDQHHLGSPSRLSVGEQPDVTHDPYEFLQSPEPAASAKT
The experiment in a line: SYO1 BRD9 NanoLuc Degradation Assay. The format is cell-based. The conditions noted are these: SYO-1 cells expressing 3×FLAG-NLuc-BRD9, 6 hours incubation, 1 μM top dose, read-out: SYO1 BRD9-NanoLuc degradation IC50. The protocol: Procedure: A stable SYO-1 cell line expressing 3×FLAG-NLuc-BRD9 was generated. On day 0 cells were seeded in 30 μL media into each well of 384-well cell culture plates. The seeding density was 8000 cells/well. On day 1, cells were treated with 30 nL DMSO or 30 nL of 3-fold serially DMSO-diluted compounds (10 points in duplicates with 1 μM as final top dose). Subsequently plates were incubated for 6 hours in a standard tissue culture incubator and equilibrated at room temperature for 15 minutes. Nanoluciferase activity was measured by adding 15 μL of freshly prepared Nano-Glo Luciferase Assay Reagent (Promega N1130), shaking the plates for 10 minutes and reading the bioluminescence using an EnVision reader.
Results: The Inhibition % was calculated using the following formula: % Inhibition=100×(LumHC−Lumsample)/(LumHC−LumLC). DMSO treated cells are employed as High Control (HC) and 1 μM of a known BRD9 degrader standard treated cells are employed as Low Control (LC).

Like-named read-outs stand apart in the source and are kept apart here.

In the case of `COc1cc(-c2cn(C)c(=O)c3cnc(N(C)C)cc23)cc(OC)c1CN1CCC(CCN2CCN(c3ccc4c(c3)C(=O)N(C3CCC(=O)N(COC(=O)OC(C)C)C3=O)C4=O)CC2)CC1` (centres unmarked) [Compound D85], the DC50 (Table 6B) is less than 10 nM.
With `COc1cc(-c2cn(C)c(=O)c3cnc(N4CCC4)cc23)cc(OC)c1CN1CC(C(C)(C)N2CCC3(CC2)CN(c2ccc4c(c2)C(=O)N(C2CCC(=O)NC2=O)C4)C3)C1` (centres unmarked) [Compound D192], the DC50 (Table 6C) is less than 10 nM.
In the case of `COc1cc(-c2cn(C)c(=O)c3cnc(N4CCC4)cc23)cc(OC)c1CN1CC(CN2CCC3(CC2)CN(c2ccc4c(c2)C(=O)N(C2CCC(=O)NC2=O)C4=O)C3)C1` (centres unmarked) [Compound D116], the DC50 (Table 6B) is less than 10 nM.
Consider `COc1cc(-c2cn(C)c(=O)c3cnc(N4CCC4)cc23)cc(OC)c1CN1CCC2(CC1)CN(c1ccc3c(c1)CN(C1CCC(=O)NC1=O)C3=O)C2` (centres unmarked) [Compound D310], for which the DC50 (Table 6C) was less than 10 nM.
In the case of `COc1cc(-c2cn(C)c(=O)c3ccc(N4CCC4)cc23)cc(OC)c1CN1CCC(N2CCN(c3ccc4c(c3)CN(C3CCC(=O)NC3=O)C4=O)CC2)CC1` (centres unmarked) [Compound D176], the DC50 (Table 6B) is less than 10 nM.
For `COc1cc2c(-c3cc(OC)c(CN4CC(CN5CCC6(CC5)CN(c5ccc7c(c5)C(=O)N(C5CCC(=O)NC5=O)C7)C6)C4)c(OC)c3)cn(C)c(=O)c2cn1` (centres unmarked) [Compound D316], the DC50 (Table 6C) is less than 10 nM.
As for `COc1cc(-c2cn(C)c(=O)c3cnc(N(C)C)cc23)cc(OC)c1CN1CCC(CN2CCC3(CC2)CC(Oc2ccc4c(c2)CN(C2CCC(=O)NC2=O)C4=O)C3)CC1` (centres unmarked) [Compound D103], the DC50 (Table 6B) was less than 10 nM.
On to `COc1cc(-c2cn(C)c(=O)c3cnc(N(C)C)cc23)cc(OC)c1CC1CCN(c2ccc3c(c2)C(=O)N(C2CCC(=O)NC2=O)C3=O)CC1` (centres unmarked) [Compound D133], for which the DC50 (Table 6B) is less than 10 nM.
As to `COc1cc2c(-c3cc(OC)c(CN4CC(CN5CCC6(CC5)CN(c5ccc7c(c5)C(=O)N(C5CCC(=O)NC5=O)C7)C6)C4)c(OC)c3)cn(C)c(=O)c2cn1` (centres unmarked) [Compound D184], the DC50 (Table 6B) is less than 10 nM.
For the compound `CNc1cc2c(=O)n(C)cc(-c3cc(OC)c(CN(C)CC45CC(C(=O)NCCCCCOc6ccc7c(c6)C(=O)N(C6CCC(=O)NC6=O)C7=O)(C4)C5)c(OC)c3)c2cn1` (centres unmarked) [Compound D173], the DC50 (Table 6B) was less than 10 nM.
Consider `COc1cc2c(-c3cc(OC)c(CN4CCC(CCN5CCC6(CC5)CN(c5ccc7c(c5)C(=O)N(C5CCC(=O)NC5=O)C7)C6)CC4)c(OC)c3)cn(C)c(=O)c2cn1` (centres unmarked) [Compound D199], for which the DC50 (Table 6C) was less than 10 nM.
On to `[2H]C([2H])([2H])n1cc(-c2cc(OC)c(CN3CCN(CCC4CCN(c5ccc6c(c5)C(=O)N(C5CCC(=O)NC5=O)C6)CC4)CC3)c(OC)c2)c2cc(OC)ncc2c1=O` (centres unmarked) [Compound D231], for which the DC50 (Table 6C) is less than 10 nM.
In the case of `COc1cc(-c2cn(C)c(=O)c3cnc(N4CCC4)cc23)cc(OC)c1CN1CCN(c2ccc3c(c2)C(=O)N(C2CCC(=O)NC2=O)C3)CC1(C)C` (centres unmarked) [Compound D290], under “Table 6C”, the DC50 is less than 10 nM.
With `COc1cc(-c2cn(C)c(=O)c3cnc(N4CCC4)cc23)cc(OC)c1CN1CC(Oc2ccc3c(c2)C(=O)N(C2CCC(=O)NC2=O)C3=O)C1` (centres unmarked) [Compound D137], the DC50 (Table 6B) was less than 10 nM.
On to `COc1cc(-c2cn(C)c(=O)c3cnc(N(C)C)cc23)cc(OC)c1CN1CC(CN2CCC3(CC2)CC(Oc2ccc4c(c2)C(=O)N(C2CCC(=O)NC2=O)C4=O)C3)C1` (centres unmarked) [Compound D67], for which the DC50 (Table 6B) is less than 10 nM.
As to `COc1cc(-c2cn(C)c(=O)c3cnc(N4CCC4)cc23)cc(OC)c1CN1CCC(CN2CCC3(CC2)CC(Oc2ccc4c(c2)C(=O)N(C2CCC(=O)NC2=O)C4)C3)CC1` (centres unmarked) [Compound D187], the DC50 (Table 6C) was less than 10 nM.
As to `COc1cc(-c2cn(C)c(=O)c3cnc(N(C)C)cc23)cc(OC)c1CN1CCC(C(=O)N2CCC3(CC2)CC(Oc2ccc4c(c2)C(=O)N(C2CCC(=O)NC2=O)C4=O)C3)CC1` (centres unmarked) [Compound D55], the DC50 (Table 6B) is less than 10 nM.
`CCOC1CC1c1cc2c(-c3cc(OC)c(CN4CCN(CCC5CCN(c6ccc7c(c6)C(=O)N(C6CCC(=O)NC6=O)C7=O)CC5)CC4)c(OC)c3)cn(C)c(=O)c2cn1` (centres unmarked) [Compound D204]: the DC50 (Table 6C) is less than 10 nM.
In the case of `COc1cc(-c2cn(C)c(=O)c3cnc(N(C)C)cc23)cc(OC)c1CN(C)C12CC(C(=O)NCCCCCOc3cccc4c3C(=O)N(C3CCC(=O)NC3=O)C4=O)(C1)C2` (centres unmarked) [Compound D34], where the note is “Table 6B”, the DC50 was less than 10 nM.
Consider `COc1cc(-c2cn(C)c(=O)c3cnc(N(C)C)cc23)cc(OC)c1CN1CCC2(CC1)CN(c1ccc3c(c1)C(=O)N(C1CCC(=O)NC1=O)C3)C2` (centres unmarked) [Compound D128], for which, under “Table 6B”, the DC50 is less than 10 nM.
Regarding `COc1cc(-c2cn(C)c(=O)c3cnc(N4CC5(CC5)C4)cc23)cc(OC)c1CN1CCC(CN2CCC3(CC2)CN(c2ccc4c(c2)C(=O)N(C2CCC(=O)NC2=O)C4)C3)CC1` (centres unmarked) [Compound D205], the DC50 (Table 6C) lay within 10 to 100 nM.
As for `COc1cc(-c2cn(C)c(=O)c3cnc(N(C)C)cc23)cc(OC)c1CN1CCC(CCN2CCN(C3CCC(=O)NC3=O)C(=O)C2)CC1` (centres unmarked) [Compound D88], the DC50 (Table 6B) was in the range of 10 to 100 nM.
On to `COc1cc(-c2cn(C)c(=O)c3cnc(N4CCC4)cc23)ccc1CN1CCC2(CC1)CN(c1ccc3c(c1)C(=O)N(C1CCC(=O)NC1=O)C3)C2` (centres unmarked) [Compound D149], for which, under “Table 6B”, the DC50 is less than 10 nM.
On to `COc1cc(-c2cn(C)c(=O)c3cnc(C(C)(C)CO)cc23)cc(OC)c1CN1CCC(CN2CCC3(CC2)CC(Oc2ccc4c(c2)CN(C2CCC(=O)NC2=O)C4=O)C3)CC1` (centres unmarked) [Compound D315], for which the DC50 (Table 6C) is less than 10 nM.
For the compound `COc1cc(-c2cn(C)c(=O)c3cnc(N(C)C)cc23)cc(OC)c1CN(C)C12CC(C(=O)NCCCCCOc3ccc4c(c3)C(=O)N(C3CCC(=O)NC3=O)C4=O)(C1)C2` (centres unmarked) [Compound D40], the DC50 (Table 6B) is less than 10 nM.
Regarding `COc1cc(-c2cn(C)c(=O)c3cnc(N(C)C)cc23)cc(OC)c1CN1CCN(c2ccc3c(c2)C(=O)N(C2CCC(=O)NC2=O)C3)CC1(C)C` (centres unmarked) [Compound D255], for the setting “Table 6C”, the DC50 is less than 10 nM.
As for `COc1cc(-c2cn(C)c(=O)c3cnc(N(C)C)cc23)cc(OC)c1CN1CCN(CC(C)(C)Oc2ccc3c(c2)C(=O)N(C2CCC(=O)NC2=O)C3=O)CC1` (centres unmarked) [Compound D96], the DC50 (Table 6B) is less than 10 nM.
Regarding `[2H]C([2H])([2H])Oc1cc2c(-c3cc(OC)c(CN4CCN(CCC5CCN(c6ccc7c(c6)C(=O)N(C6CCC(=O)NC6=O)C7)CC5)CC4)c(OC)c3)cn(C)c(=O)c2cn1` (centres unmarked) [Compound D198], the DC50 (Table 6C) is less than 10 nM.
With `COc1cc(-c2cn(C)c(=O)c3cnc(C4CC4)cc23)cc(OC)c1CN1CCC(CN2CCC3(CC2)CC(Oc2ccc4c(c2)C(=O)N(C2CCC(=O)NC2=O)C4=O)C3)CC1` (centres unmarked) [Compound D301], the DC50 (Table 6C) was less than 10 nM.
In the case of `COc1cc(-c2cn(C)c(=O)c3cnc(N4CC(F)(F)C4)cc23)cc(OC)c1CN1CCC(CN2CCC3(CC2)CN(c2ccc4c(c2)C(=O)N(C2CCC(=O)NC2=O)C4)C3)CC1` (centres unmarked) [Compound D291], the DC50 (Table 6C) was less than 10 nM.
As to `COc1cc(-c2cn(C)c(=O)c3cnc(N(C)C)cc23)cc(OC)c1CN1CCN(c2ccc3c(c2)CN(C2CCC(=O)NC2=O)C3=O)CC1` (centres unmarked) [Compound D114], the DC50 (Table 6B) was less than 10 nM.
As to `COc1cc(-c2cn(C)c(=O)c3cnc(N(C)C)cc23)cc(OC)c1CN1CCC(CCNC(=O)NCc2ccc3c(c2)C(=O)N(C2CCC(=O)NC2=O)C3=O)CC1` (centres unmarked) [Compound D74], the DC50 (Table 6B) lay within 10 to 100 nM.
As for `COc1cc2c(-c3cc(OC)c(CN4CCN(CCC5CCN(c6ccc7c(c6)C(=O)N(C6CCC(=O)NC6=O)C7)CC5)CC4)c(OC)c3)cn(C)c(=O)c2cn1` (centres unmarked) [Compound D225], under “Table 6C”, the DC50 is less than 10 nM.
As to `COc1cc(-c2cn(C)c(=O)c3cnc(N(C)C)cc23)cc(OC)c1C1CN(c2ccc3c(c2)C(=O)N(C2CCC(=O)NC2=O)C3)C1` (centres unmarked) [Compound D257], under “Table 6C”, the DC50 is less than 10 nM.
On the same count and under the same terms, as for `[2H]C1CC(N2Cc3cc(N4CCC(CCN5CCN(Cc6c(OC)cc(-c7cn(C)c(=O)c8cnc(N9CCC9)cc78)cc6OC)CC5)CC4)ccc3C2=O)C(=O)NC1=O` (centres unmarked) [Compound D245], the figure is less than 10 nM; as for `[2H]C([2H])([2H])n1cc(-c2cc(OC)c(CN3[C@H](C)CN(c4ccc5c(c4)C(=O)N(C4CCC(=O)NC4=O)C5)C[C@H]3C)c(OC)c2)c2cc(OC)ncc2c1=O` (some centres unmarked) [Compound D254], less than 10 nM.
On to `COc1cc(-c2cn(C)c(=O)c3cnc(N4CCC4)cc23)cc(OC)c1CN1CC(C(C)(C)N2CCC3(CC2)CN(c2ccc4c(c2)CN(C2CCC(=O)NC2=O)C4=O)C3)C1` (centres unmarked) [Compound D185], for which the DC50 (Table 6C) is less than 10 nM.
Regarding `COc1cc(-c2cn(C)c(=O)c3cnc(N4CCC4)cc23)cc(OC)c1CN1CCC(c2ccc3c(c2)CN(C2CCC(=O)NC2=O)C3=O)CC1` (centres unmarked) [Compound D312], the DC50 (Table 6C) was less than 10 nM.

The values are drawn from patent US12391686B2, “Compounds and uses thereof” (Foghorn Therapeutics Inc., priority 2019, dated 2025).
